System: Plasmodium berghei
Assay: Antiplasmodial activity as survival against Plasmodium berghei ANKA infected mice (Mus musculus)
Assay type: functional

`NCCOP(=O)(O)OC[C@H]1O[C@H](O[C@@H]2[C@@H](OC[C@H]3O[C@H](O[C@H]4[C@H](O)[C@@H](N)[C@@H](O[C@@H]5[C@@H](O)[C@H](O)[C@@H](O)[C@H]6OP(=O)(O)O[C@H]65)O[C@@H]4CO)[C@@H](O)[C@@H](O)[C@@H]3O)O[C@H](CO)[C@@H](O)[C@@H]2O)[C@@H](O[C@H]2O[C@H](CO)[C@@H](O)[C@H](O)[C@@H]2O)[C@@H](O)[C@@H]1O` gave a Survival of 75%.
